The test addresses T1, human MC4 receptor (Homo sapiens, UniProt P32245).
T1 construct: purchased Biolinks K.K; host or cells: HEK-293
The test is described as follows: MC4 receptor binding experiment ([125I]Nle4-D-Phe7-α-MSH displacement). The following applies: human MC4 receptor expressing HEK-293 cell membrane; [125I]Nle4-D-Phe7-α-MSH 0.2 nM, 25° C. How it is done: The MC4 receptor binding experiment was performed according to the method described in Pharmacology & Toxicology, 79, 161-165, 1996. The human MC4 receptor expressing-cell membrane obtained by expressing the human MC4 receptor in a HEK-293 cell was purchased from Biolinks K.K. The cell membrane was homogenized with 50 mM tris hydrochloride buffer (pH 7.4) containing 2 mM ethylenediaminetetraacetic acid, 10 mM calcium chloride, and 100 μM phenylmethylsulfonyl fluoride. The homogenate was centrifuged at 48,000×g at 4° C. for 20 min. The sediment obtained by centrifugation was rehomogenized with the same buffer, and the homogenate was centrifuged at 48,000×g at 4° C. for 20 min. This procedure was repeated twice. The sediment was suspended in 50 mM tris hydrochloride buffer (pH 7.4) containing 2 mM ethylenediaminetetraacetic acid, 10 mM calcium chloride, 100 μM phenylmethylsulfonyl fluoride, and 0.1% bovine serum albumin at a protein concentration of 100 μg/ml, and the suspension was used as a crude membrane preparation for the binding experiment. The crude membrane preparation (0.25 ml, 25 μg protein) was reacted with [^125I]Nle^4-D-Phe^7-α-MSH (final concentration, 0.2 nM) at 25° C. for 120 min. After completion of the reaction, the reaction solution was filtered by suction, using a cell harvester for the receptor binding experiment, onto a GF/C glass fiber filter paper immersed in 50 mM tris hydrochloride buffer (pH 7.4) containing 0.5% bovine serum for 2 h. Radioactivity on the filter paper was measured using a γ counter. The quantity of binding in the presence of 1 μM Nle^4-D-Phe^7-α-MSH was obtained as nonspecific binding, and specific binding was obtained by deducting the nonspecific binding from the total quantity, binding in the absence of 1 μM Nle^4-D-Phe^7-α-MSH. The test drug was dissolved in 100% DMSO solution and added to the membrane preparation at the same time as [^125I]Nle^4-D-Phe^7-α-MSH. The IC50 value was obtained from the inhibition curve in the range of 10^−10 to 10^−5 M. The binding test results of representative compounds are shown in Table 21 as examples.

T1 sequence (P32245 whole entry): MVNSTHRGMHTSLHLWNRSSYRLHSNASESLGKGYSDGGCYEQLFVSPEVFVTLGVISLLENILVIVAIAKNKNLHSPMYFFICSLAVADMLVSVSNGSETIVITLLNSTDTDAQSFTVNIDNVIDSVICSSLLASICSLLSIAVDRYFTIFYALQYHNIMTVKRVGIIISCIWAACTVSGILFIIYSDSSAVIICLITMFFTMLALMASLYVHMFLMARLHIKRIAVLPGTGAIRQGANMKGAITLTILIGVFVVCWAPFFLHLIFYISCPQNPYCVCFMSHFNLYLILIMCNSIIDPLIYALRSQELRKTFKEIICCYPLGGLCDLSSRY

For orientation: IC50 means the concentration needed to halve the response being measured. Higher therefore signals weaker potency in that assay. For the compound `Cc1cc(N[C@@H]2CCN(S(C)(=O)=O)C2)nc(N[C@@H]2CN(C(=O)Cc3ccc(OC(F)(F)F)cc3)C[C@H]2O)n1` [Compound 13-002], the IC50 stood at 25 nM. The value for `CO[C@@H]1CCN(c2cc(C)nc(N[C@@H]3CN(C(=O)Cc4ccc(OC(F)(F)F)cc4)C[C@H]3O)n2)C1` [Compound 13-004] was 46 nM; that for `Cc1cc(N2CCCCC2)nc(N[C@@H]2CN(C(=O)Cc3ccc(OC(F)(F)F)cc3)C[C@H]2O)n1` [Compound 13-005] was 21 nM; that for `CO[C@@H]1CN(C(=O)Cc2ccc(OC(F)(F)F)cc2)C[C@H]1Nc1nc(C)cc(N2CCOCC2)n1` [Compound 13-008] was 36 nM. Then `Cc1cc(N2CCOCC2)cc(N[C@@H]2CN(C(=O)Cc3ccc(OC(F)(F)F)cc3)C[C@H]2O)n1` [Compound 14-001, 1-((3R,4R)-3-hydroxy-4-(6-methyl-4-morpholin-4-ylpyridin-2-ylamino)pyrrolidin-1-yl)-2-(4-trifluoromethoxyphenyl)ethanone], with 16 nM. Then `CO[C@@H]1CN(C(=O)Cc2ccc(OC(F)(F)F)cc2)C[C@H]1Nc1cc(N2CCOCC2)cc(C)n1` [Compound 14-002], with 19 nM. Compound `CO[C@@H]1CN(C(=O)Cc2ccc(OC(F)(F)F)cc2)C[C@H]1Nc1cc(N2CCS(=O)(=O)CC2)cc(C)n1` [Compound 14-003] gave an IC50 of 7.4 nM.

`O=C1CN(c2nc(N[C@H]3CCN(C(=O)C4(c5ccc(Cl)cc5)CC4)C3)nc3cc(F)ccc23)CCN1` [Compound 15-003] gave an IC50 of 26 nM.
